Reference: US20220281848A1, “PYRAZOLE-SUBSTITUTED PYRROLIDINONES AS HERBICIDES” (FMC Corporation, priority 2019, published 2022)

Test system: plants
Experiment: Test D post-emergence, other plants of Tables D2 and D4
Type: in vivo
Details: for damage to plant (100=total damage to plant; 0=no damage to plant), ABUTH / damage to plant (100=total damage to plant; 0=no damage to plant), AMARE / damage to plant (100=total damage to plant; 0=no damage to plant), BIDPI / damage to plant (100=total damage to plant; 0=no damage to plant), BRAPL / damage to plant (100=total damage to plant; 0=no damage to plant), CYPES / damage to plant (100=total damage to plant; 0=no damage to plant), DIGSA / damage to plant (100=total damage to plant; 0=no damage to plant), ECHCG / damage to plant (100=total damage to plant; 0=no damage to plant), ELEIN / damage to plant (100=total damage to plant; 0=no damage to plant), EPHHL / damage to plant (100=total damage to plant; 0=no damage to plant), GLXMA / damage to plant (100=total damage to plant; 0=no damage to plant), IPOHE / damage to plant (100=total damage to plant; 0=no damage to plant), ORYSA / damage to plant (100=total damage to plant; 0=no damage to plant), PANMI / damage to plant (100=total damage to plant; 0=no damage to plant), SETFA / damage to plant (100=total damage to plant; 0=no damage to plant), SORVU: post-emergence
Procedure, shortened: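 Seeds treated with herbicide safener; sown in soil; glasshouse, 16 h light, 65% humidity. Sprayed day 1 (pre) or ~day 12 (post). Spray in 0.2% v/v adjuvant. Scored 0–100 damage: 20 DAA pre, 15 d post.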

[1] = "Cereals" Postemergent, Rates 130, evaluated after 15 d
[2] = "Cereals" Postemergent, Rates 250, evaluated after 15 d
[3] = "Cereals" Postemergent, Rates 500, evaluated after 15 d

CN1CC(c2cc(C(F)(F)F)n(C)n2)C(C(=O)Nc2ccc(F)c(F)c2F)C1=O (racemic) [Compound 17]
SINAR damage rating (100=total damage to plant; 0=no damage to plant) (SINAR, "Cereals" Postemergent, Rates 500, evaluated after 15 d): 60
STEME damage rating (100=total damage to plant; 0=no damage to plant) [1]: 0
STEME damage rating (100=total damage to plant; 0=no damage to plant) [2]: 0
STEME damage rating (100=total damage to plant; 0=no damage to plant) [3]: 30
VERPE damage rating (100=total damage to plant; 0=no damage to plant) [1]: 30
VERPE damage rating (100=total damage to plant; 0=no damage to plant) [2]: 70
VERPE damage rating (100=total damage to plant; 0=no damage to plant) [3]: 60
damage to plant (100=total damage to plant; 0=no damage to plant), ABUTH (rate 130, evaluated after 15 d): 0
damage to plant (100=total damage to plant; 0=no damage to plant), ABUTH (rate 250, evaluated after 15 d): 0
damage to plant (100=total damage to plant; 0=no damage to plant), ABUTH (rate 500, evaluated after 15 d): 20
damage to plant (100=total damage to plant; 0=no damage to plant), AMARE (rate 250, evaluated after 15 d): 20
damage to plant (100=total damage to plant; 0=no damage to plant), AMARE (rate 500, evaluated after 15 d): 40
damage to plant (100=total damage to plant; 0=no damage to plant), BIDPI (rate 130, evaluated after 15 d): 0
damage to plant (100=total damage to plant; 0=no damage to plant), BIDPI (rate 250, evaluated after 15 d): 0
damage to plant (100=total damage to plant; 0=no damage to plant), BIDPI (rate 500, evaluated after 15 d): 0
damage to plant (100=total damage to plant; 0=no damage to plant), BRAPL (rate 130, evaluated after 15 d): 70
damage to plant (100=total damage to plant; 0=no damage to plant), BRAPL (rate 250, evaluated after 15 d): 80
damage to plant (100=total damage to plant; 0=no damage to plant), BRAPL (rate 500, evaluated after 15 d): 80
damage to plant (100=total damage to plant; 0=no damage to plant), CYPES (rate 130, evaluated after 15 d): 0
damage to plant (100=total damage to plant; 0=no damage to plant), CYPES (rate 250, evaluated after 15 d): 0
damage to plant (100=total damage to plant; 0=no damage to plant), CYPES (rate 500, evaluated after 15 d): 10
damage to plant (100=total damage to plant; 0=no damage to plant), DIGSA (rate 130, evaluated after 15 d): 70
damage to plant (100=total damage to plant; 0=no damage to plant), DIGSA (rate 250, evaluated after 15 d): 80
damage to plant (100=total damage to plant; 0=no damage to plant), DIGSA (rate 500, evaluated after 15 d): 80
damage to plant (100=total damage to plant; 0=no damage to plant), ECHCG (rate 130, evaluated after 15 d): 80
damage to plant (100=total damage to plant; 0=no damage to plant), ECHCG (rate 250, evaluated after 15 d): 80
damage to plant (100=total damage to plant; 0=no damage to plant), ECHCG (rate 500, evaluated after 15 d): 80
damage to plant (100=total damage to plant; 0=no damage to plant), ELEIN (rate 130, evaluated after 15 d): 0
damage to plant (100=total damage to plant; 0=no damage to plant), ELEIN (rate 250, evaluated after 15 d): 10
damage to plant (100=total damage to plant; 0=no damage to plant), ELEIN (rate 500, evaluated after 15 d): 20
damage to plant (100=total damage to plant; 0=no damage to plant), EPHHL (rate 130, evaluated after 15 d): 10
damage to plant (100=total damage to plant; 0=no damage to plant), EPHHL (rate 250, evaluated after 15 d): 20
damage to plant (100=total damage to plant; 0=no damage to plant), EPHHL (rate 500, evaluated after 15 d): 30
damage to plant (100=total damage to plant; 0=no damage to plant), GLXMA (rate 130, evaluated after 15 d): 0
damage to plant (100=total damage to plant; 0=no damage to plant), GLXMA (rate 250, evaluated after 15 d): 0
damage to plant (100=total damage to plant; 0=no damage to plant), GLXMA (rate 500, evaluated after 15 d): 10
damage to plant (100=total damage to plant; 0=no damage to plant), IPOHE (rate 130, evaluated after 15 d): 0
damage to plant (100=total damage to plant; 0=no damage to plant), IPOHE (rate 250, evaluated after 15 d): 0
damage to plant (100=total damage to plant; 0=no damage to plant), IPOHE (rate 500, evaluated after 15 d): 10
damage to plant (100=total damage to plant; 0=no damage to plant), ORYSA (rate 130, evaluated after 15 d): 0
damage to plant (100=total damage to plant; 0=no damage to plant), ORYSA (rate 250, evaluated after 15 d): 0
damage to plant (100=total damage to plant; 0=no damage to plant), ORYSA (rate 500, evaluated after 15 d): 10
damage to plant (100=total damage to plant; 0=no damage to plant), PANMI (rate 130, evaluated after 15 d): 0
damage to plant (100=total damage to plant; 0=no damage to plant), PANMI (rate 250, evaluated after 15 d): 0
damage to plant (100=total damage to plant; 0=no damage to plant), PANMI (rate 500, evaluated after 15 d): 0
damage to plant (100=total damage to plant; 0=no damage to plant), SETFA (rate 130, evaluated after 15 d): 60
damage to plant (100=total damage to plant; 0=no damage to plant), SETFA (rate 250, evaluated after 15 d): 70
damage to plant (100=total damage to plant; 0=no damage to plant), SETFA (rate 500, evaluated after 15 d): 70
damage to plant (100=total damage to plant; 0=no damage to plant), SORVU (rate 130, evaluated after 15 d): 0
damage to plant (100=total damage to plant; 0=no damage to plant), SORVU (rate 250, evaluated after 15 d): 0
damage to plant (100=total damage to plant; 0=no damage to plant), SORVU (rate 500, evaluated after 15 d): 0
